Experimental data from PMC7119063 (Bioorganic & Medicinal Chemistry, 2005).
pEC50: −log10 of the molar value. “Also recorded” adds a separate entry of the source.

Assays:
[1] = system: SARS-CoV; settings: cited from earlier work
[2] = molecular target: SARS-CoV 3CL protease (Severe acute respiratory syndrome coronavirus, UniProt P0C6X7); type: biochemical
[3] = system: SARS-CoV; type: cell-based
[4] = system: human rhinovirus (HRV) 3C protease; settings: cited from earlier work

Row | SMILES | pEC50 [1] | inhibitory activity against SARS-CoV 3CL protease (in words) [2] | concentration at which active as anti-SARS agent (protection from CPE) [3] | activity to the SARS-CoV in a cell-based assay [1] | inhibition of HRV 3C protease (in words) [4]
1 | CC(C)[C@@H]1NC(=O)[C@H](C)OC(=O)[C@@H](C(C)C)NC(=O)[C@@H](C(C)C)OC(=O)[C@H](C(C)C)NC(=O)[C@H](C)OC(=O)[C@@H](C(C)C)NC(=O)[C@@H](C(C)C)OC(=O)[C@H](C(C)C)NC(=O)[C@H](C)OC(=O)[C@@H](C(C)C)NC(=O)[C@@H](C(C)C)OC1=O [valinomycin] | 6.07 |  |  |  | 
2 | CCOC(=O)C=CC(CC1CCNC1=O)NC(=O)C(CC(=O)C(NC(=O)c1cc(C)on1)C(C)C)Cc1ccc(F)cc1 (centres unmarked) [Compound 1a, Ethyl 4-[2-(4-fluorobenzyl)-6-methyl-5-(5-methyl-3-isoxazolyl)carbonylamino-1,4-dioxoheptylamino]-5-(2-oxo-3-pyrrolidinyl)-2-pentenoate] |  | no inhibitory activity; also recorded: inactive | inactive | inactive | potent inhibitor
